Like-named read-outs stand apart in the source and are kept apart here. Marks after values point to notes of the source that are not given here.
How the values were obtained:
[1] = tested on: human mammary carcinoma MX-1 xenograft
Procedure: (§1) DMSO was used as a vehicle for epothilones. Each mouse received ≦40 μL DMSO in all experiments.
(§2) Athymic nude mice (nu/nu) were used for MX-1 and MCF-7/Adr human mammary carcinoma xenografts. Mice were obtained from Taconic Laboratory Animals and Service (Germantown, N.Y.: outbred, Swiss background).

[2] = tested on: CCRF-CEM human T-cell acute lymphoblastic leukemia cell line; assay: XTT cytotoxicity (cell growth inhibition), CCRF-CEM; details: for Rel. Value (potency relative to Epo B): CCRF-CEM leukemic cells
Procedure: The DC-3F hamster lung fibroblast cell line and its actinomycin D-selected sublines (DC-3F/ADII and DC-3F/ADX) were obtained from the Memorial Sloan-Kettering Cancer Center (MSKCC).
(§3) The drug-resistant cell lines were continuously cultured in the presence of the selecting agent, AD, DX, VBL or VM to maintain the drug resistant phenotypes. […] All cells were cultured in RPMI 1640-10% FBS at 37° C. 5% CO2 (see below).
(§4) The cells were cultured at an initial density of 5×10^4 cells/mL. They were maintained in a 5% CO2-humidified atmosphere at 37° C. in RPMI-1640 medium (GIBCO-BRL, Gaithersburg, Md.) containing penicillin (100 U/mL), streptomycin ([…]) (GIBCO-BRL) and 10% heat inactivate fetal bovine serum. Culture for cell suspension (such as for CCRF-CEM, P388 and sublines), were performed by the XTT-microculture tetrazonium method (Scudiero, D. A. et al., Cancer Res. 1988, 48, 4827-4833) in duplicate in 96-well microtiter plates.
(§5) 2′,3′-Bis(methoxy-4-nitro-5-sufophenyl)-5-[(phenylamino)carbonyl]2H-tetrazolium hyudroxide (XTT) was prepared at 1 mg/mL in prewarmed (37° C.) medium without serum. Phenazine methosulfate (PMS) and fresh XTT were mixed together to obtain 0.025 mM PMS-XTT solution (25 μL of the stock 5 mM PMS was added per 5 mL of 1 mg/mL XTT). Following a 72 h incubation, 50 μL of the assay aliquots were added to each well of the cell culture. After incubation at 37° C. for 4 h, absorbance at 450 nm and 630 nm was measured with a microplate reader (EL340, Bio-Tek Instruments, Inc., Winooski, Vt.).

CCRF-CEM/VBL100 = assay: cells; type: cell-based, human; details: read-out: IC50
Procedure: as §3, §4, §5

[3] = tested on: MDR human mammary adenocarcinoma MCF-7/Adr xenograft; assay: in vivo
Procedure: as §1, §2

[4] = high doses: dEpoB 25, EpoB 0.6, Taxol 10, Vinblastine 0.4 mg/kg i.p. Q2D from day 7
[5] = low doses: dEpoB 15, EpoB 0.3, Taxol 5, Vinblastine 0.2 mg/kg i.p. Q2D day 7-15
[6] = Table 5, CCRF-CEM/VLB, single determinations
[7] = camptothecin 3 mg/kg i.p. Q2Dx5 from day 8, day 11
[8] = camptothecin 3 mg/kg i.p. Q2Dx5 from day 8, day 13
[9] = camptothecin 3 mg/kg i.p. Q2Dx5 from day 8, day 15
[10] = camptothecin 3 mg/kg i.p. Q2Dx5 from day 8, day 17
[11] = high doses: Taxol 12, Adriamycin 3, Camptothecin 3.0 mg/kg i.p. day 8,10,12,14,16

Structure (SMILES): C/C1=C/C[C@@H](/C(C)=C/c2csc(C)n2)OC(=O)C[C@H](O)C(C)(C)C(=O)[C@H](C)[C@@H](O)[C@@H](C)CCC1 [Desoxyepothione B]
- cured on day 35 (no detectable tumor) ([1]; Desoxyepothilone B 25 mg/kg i.p. Q2D day 7-15): (1/6 cured on day 35)
- Average Body Weight (change), Day 11 [1, 4]: +0.4 g
- Average Body Weight (change), Day 13 [1, 4]: +0.7 g
- Average Body Weight (change), Day 15 [1, 4]: +1.0 g
- Average Body Weight Change, Day 17 [1, 4]: +0.7 g
- Average Tumor Volume (T/C), Day 11 [1, 4]: 0.38 T/C
- Average Tumor Volume (T/C), Day 13 [1, 4]: 0.11 T/C
- Average Tumor Volume (T/C), Day 15 [1, 4]: 0.05 T/C
- Average Tumor Volume (T/C), Day 17 [1, 4]: 0.04 T/C
- Note: died (mice died/total) [1, 4]: 0/6 died
- Average Body Weight, Day 7 ([1]; initial weight, first treatment day, high doses: dEpoB 25, EpoB 0.6, Taxol 10, Vinblastine 0.4 mg/kg i.p. Q2D from day 7): 27.0 g
- Average Body Weight (change), Day 11 [1, 5]: +0.8 g
- Average Body Weight (change), Day 13 [1, 5]: +1.1 g
- Average Body Weight (change), Day 15 [1, 5]: +1.6 g
- Average Body Weight Change, Day 17 [1, 5]: +1.5 g
- Average Tumor Volume (T/C), Day 11 [1, 5]: 0.65 T/C
- Average Tumor Volume (T/C), Day 13 [1, 5]: 0.46 T/C
- Average Tumor Volume (T/C), Day 15 [1, 5]: 0.49 T/C
- Average Tumor Volume (T/C), Day 17 [1, 5]: 0.41 T/C
- Note: died (mice died/total) [1, 5]: 0/6 died

Structure (SMILES): CCC1=CCC(C(C)=Cc2csc(C)n2)OC(=O)CC(O)C(C)(C)C(=O)C(C)C(O)C(C)CCC1 (stereo not shown) [#26]
- IC50 [2]: 5 nM
- Rel. Value (potency relative to Epo B) [2]: 1/157
- IC50 ([2]; Table 5, single determinations): 55 nM
- IC50 ([2]; Table 7, CEM): 54.5 nM
- IC50 (CCRF-CEM/VBL100; [6]): 197 nM
- IC50 (CCRF-CEM/VBL100; Table 7, CEM/VBL): 197 nM
- IC50 (CCRF-CEM/VBL100): 197 nM

Structure (SMILES): C/C(=C\c1coc(C)n1)[C@@H]1C/C=C\CCC[C@H](C)[C@H](O)[C@@H](C)C(=O)C(C)(C)[C@@H](O)CC(=O)O1 [#20]
- IC50 [2]: 30 nM
- IC50 ([2]; Table 5, single determinations): 30 nM
- IC50 ([2]; Table 7, CEM): 30 nM
- IC50 (CCRF-CEM/VBL100; [6]): 49 nM
- IC50 (CCRF-CEM/VBL100; Table 7, CEM/VBL): 49 nM
- IC50 (CCRF-CEM/VBL100): 49 nM

Structure (SMILES): CCC[C@@]12CCC[C@H](C)[C@H](O)[C@@H](C)C(=O)C(C)(C)[C@@H](O)CC(=O)O[C@H](/C(C)=C/c3csc(C)n3)C[C@@H]1O2 [#24]
- IC50 [2]: 7.8 nM
- IC50 ([2]; Table 5, single determinations): 7.8 nM
- IC50 ([2]; Table 7, CEM): 7.8 nM
- IC50 (CCRF-CEM/VBL100; [6]): 53 nM
- IC50 (CCRF-CEM/VBL100; Table 7, CEM/VBL): 53 nM
- IC50 (CCRF-CEM/VBL100): 53 nM

Structure (SMILES): CC[C@@]1(O)C(=O)OCc2c1cc1n(c2=O)Cc2cc3ccccc3nc2-1 [Campothecin, camptothecin]
- Therapeutic effect Rank Order ([1]; MX-1, i.p., comparison with Camptothecin, VBL, EpoB (order wraps over rows r7-r8)): dEpoB > Camptothecin >
- toxicity ([3]; CPT 3 mg/kg Q2Dx5 i.p.): moderate toxicity without lethality
- Therapeutic effect Rank Order ([3]; MCF-7/Adr, i.p. (order wraps over rows r13-r14)): dEpoB >> Camptothecin >
- Toxicity Death ([3]; camptothecin 3 mg/kg i.p. Q2Dx5 from day 8): 0/6
- Average Body Weight Change [3, 7]: -0.6 g
- Average Tumor Size (T/C) [3, 7]: 0.95
- Average Body Weight Change [3, 8]: -0.4 g
- Average Tumor Size (T/C) [3, 8]: 0.76
- Average Body Weight Change [3, 9]: -0.8 g
- Average Tumor Size (T/C) [3, 9]: 0.61
- Average Body Weight Change [3, 10]: -0.9 g
- Average Tumor Size (T/C) [3, 10]: 0.43*
- tumor size reduction ([3]; camptothecin 3 mg/kg, day 17): 57%
- Average Body Weight (change), Day 11 [3, 11]: -0.6 g
- Average Body Weight (change), Day 13 [3, 11]: -0.4 g
- Average Body Weight (change), Day 15 [3, 11]: -0.8 g
- Average Body Weight Change, Day 17 [3, 11]: -0.9 g
- Average Tumor Volume (T/C), Day 11 [3, 11]: 0.95 T/C
- Average Tumor Volume (T/C), Day 13 [3, 11]: 0.76 T/C
- Average Tumor Volume (T/C), Day 15 [3, 11]: 0.61 T/C
- Average Tumor Volume (T/C), Day 17 [3, 11]: 0.43 T/C
- Died [3, 11]: 0/6
- Average Body Weight, Day 8 ([3]; initial weight, first treatment day, high doses: Taxol 12, Adriamycin 3, Camptothecin 3.0 mg/kg i.p. day 8,10,12,14,16): 24.5 g

Structure (SMILES): CC/C1=C/C[C@@H](/C(C)=C/c2csc(C)n2)OC(=O)C[C@H](O)C(C)(C)C(=O)[C@H](C)[C@@H](O)[C@@H](C)CCC1 [#25]
- IC50 [2]: 21 nM
- Rel. Value (potency relative to Epo B) [2]: 1/60
- IC50 ([2]; Table 7, CEM): 21.2 nM
- IC50 (CCRF-CEM/VBL100; [6]): 77 nM
- IC50 (CCRF-CEM/VBL100; Table 7, CEM/VBL): 77 nM
- IC50 (CCRF-CEM/VBL100): 77 nM

Structure (SMILES): C/C1=C/C[C@@H](/C(C)=C/c2ccccc2)OC(=O)C[C@H](O)C(C)(C)C(=O)[C@H](C)[C@@H](O)[C@@H](C)CCC1 [#22]
- IC50 ([2]; Table 5, single determinations): 98 nM
- IC50 ([2]; Table 7, CEM): 98 nM
- IC50 (CCRF-CEM/VBL100; [6]): 146 nM
- IC50 (CCRF-CEM/VBL100; Table 7, CEM/VBL): 146 nM
- IC50 (CCRF-CEM/VBL100): 146 nM

Reference: US6603023B2 (priority 1996, dated 2003)
